Test results: the supplement of paper PMC10307832

Experiments:
Test in all cases: relative viability (nuclei count vs DMSO), 5 days (fraction); higher = more cells survive
Docetaxel = compound: CC(=O)O[C@@]12CO[C@@H]1C[C@H](O)[C@@]1(C)C(=O)[C@H](O)C3=C(C)[C@@H](OC(=O)[C@H](O)[C@@H](NC(=O)OC(C)(C)C)c4ccccc4)C[C@@](O)([C@@H](OC(=O)c4ccccc4)[C@H]21)C3(C)C [Docetaxel]
How it was run: (§1)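 Viability was read as treated-well nuclei divided by vehicle-well nuclei, using the median across plates. Lung cancer cell lines in 1536-well plates were kept overnight at 37 °C, pinned with five √10-spaced library-drug doses, and after 5 days were Hoechst-stained, imaged at 4× and counted in MetaXpress. Plates passed only with control CV below 25% and at least one doubling.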

Tivozanib = compound: COc1cc2nccc(Oc3ccc(NC(=O)Nc4cc(C)on4)c(Cl)c3)c2cc1OC [Tivozanib]
How it was run: as §1

[1] = compound: Cc1cnc(-c2cnc(NCCNc3ccc(C#N)cn3)nc2-c2ccc(Cl)cc2Cl)[nH]1
How it was run: as §1

JQ1 = compound: Cc1sc2c(c1C)C(c1ccc(Cl)cc1)=N[C@@H](CC(=O)OC(C)(C)C)c1nnc(C)n1-2 [JQ1]
How it was run: as §1

Cytarabine = compound: Nc1ccn([C@@H]2O[C@H](CO)[C@@H](O)[C@@H]2O)c(=O)n1 [Cytarabine]
How it was run: as §1

CPI-613 = compound: O=C(O)CCCCC(CCSCc1ccccc1)SCc1ccccc1 [CPI-613]
How it was run: as §1

Pimozide = compound: O=c1[nH]c2ccccc2n1C1CCN(CCCC(c2ccc(F)cc2)c2ccc(F)cc2)CC1 [Pimozide]
How it was run: as §1

Cell Line	relative viability (Docetaxel; 0.0002 µM)	relative viability (Docetaxel; 0.000632 µM)	relative viability (Docetaxel; 0.002 µM)	relative viability (Docetaxel; 0.006325 µM)	relative viability (Docetaxel; 0.02 µM)	relative viability (Tivozanib; 0.005 µM)	relative viability (Tivozanib; 0.01581 µM)	relative viability (Tivozanib; 0.05 µM)	relative viability (Tivozanib; 0.1581 µM)	relative viability (Tivozanib; 0.5 µM)	relative viability ([1]; 0.08 µM)	relative viability ([1]; 0.253 µM)	relative viability ([1]; 0.8 µM)	relative viability ([1]; 2.53 µM)	relative viability (JQ1; 0.04 µM)	relative viability (JQ1; 0.1265 µM)	relative viability (JQ1; 0.4 µM)	relative viability (JQ1; 1.265 µM)	relative viability (JQ1; 4 µM)	relative viability (Cytarabine; 0.005 µM)	relative viability (Cytarabine; 0.01581 µM)	relative viability (Cytarabine; 0.05 µM)	relative viability (Cytarabine; 0.1581 µM)	relative viability (Cytarabine; 0.5 µM)	relative viability (CPI-613; 5 µM)	relative viability (CPI-613; 15.81 µM)	relative viability (CPI-613; 50 µM)	relative viability (CPI-613; 158.11 µM)	relative viability (CPI-613; 500 µM)	relative viability (Pimozide; 0.08 µM)	relative viability (Pimozide; 0.253 µM)	relative viability (Pimozide; 0.8 µM)	relative viability (Pimozide; 2.53 µM)	relative viability (Pimozide; 8 µM)
NCI-H1437	0.914	0.765	0.457	0.281	0.158	0.968	0.971	0.988	0.982	0.88	1.02	0.928	0.98	1	0.92	0.792	0.762	0.484	0.415	0.79	0.64	0.494	0.243	0.206	0.96	0.898	0.948	0.345	0.0955	0.991	0.969	0.959	0.904	0.723
NCI-H1563	0.881	0.974	1.08	0.744	0.593	0.958	1.05	0.975	0.95	1	1.03	0.999	0.934	1.09	0.898	0.785	0.778	0.648	0.661	0.936	0.974	0.971	0.835	0.771	1.05	0.957	0.996	0.531	0.307	0.952	1.03	0.93	0.869	0.867
NCI-H1623	0.889	0.957	0.601	0.424	0.264	1.05	0.986	1.03	0.714	0.986	1.06	0.957	0.921	0.947	0.961	0.82	0.908	0.557	0.54	0.828	0.592	0.41	0.25	0.216	1.07	0.99	1.13	0.743	0.867	0.675	0.916	0.902	0.939	0.932
NCI-H1648	0.861	0.925	0.494	0.269	0.179	0.838	0.918	1	0.886	0.716	1.11	0.801	0.951	0.76	0.89	0.753	0.434	0.294	0.184	0.69	0.734	0.813	0.443	0.611	0.818	0.768	1.11	0.393	0.577	1.01	0.641	0.822	0.8	0.972
